Common to all, as to assay type: cell-based
One series concerns the target hERG channels (Homo sapiens (Human), UniProt Q12809). In words: hERG Manual Patch Clamp Assay (HEK 293 cells stably expressing hERG channels). The note with it: for inhibition at 1 µM: human, HEK 293 cells stably expressing hERG channels, pH 7.4. For orientation: The hERG channel carries a current that helps repolarise heart muscle cells.
The target of a further series is hROMK (Homo sapiens (Human), UniProt P48048). In words: ROMK Manual Patch Clamp Assay. The conditions noted are these: whole-cell manual patch clamp, hROMK current; read-out: ROMK EP IC50. (The patch-clamp technique gives a direct electrical read-out from membranes.)
hROMK, sequence (P48048 whole entry): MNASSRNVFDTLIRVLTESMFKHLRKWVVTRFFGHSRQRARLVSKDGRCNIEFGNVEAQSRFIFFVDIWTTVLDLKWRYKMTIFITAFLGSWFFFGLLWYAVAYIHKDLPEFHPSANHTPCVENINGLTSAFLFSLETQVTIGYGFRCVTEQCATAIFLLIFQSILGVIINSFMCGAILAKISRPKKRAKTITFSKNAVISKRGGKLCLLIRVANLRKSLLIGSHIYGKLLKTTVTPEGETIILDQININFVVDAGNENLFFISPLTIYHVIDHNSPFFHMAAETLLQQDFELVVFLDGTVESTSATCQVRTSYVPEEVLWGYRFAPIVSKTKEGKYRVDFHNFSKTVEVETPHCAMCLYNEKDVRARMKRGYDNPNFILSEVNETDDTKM
For the next series, the target named is hROMK (human Kir1.1) (Homo sapiens (Human), UniProt P48048). In words: Thallium Flux Assay (FluxOR, CHO T-Rex hROMK stable cell line). The conditions noted are these: CHO T-Rex hROMK cells, 10-point concentration response curve; read-out: Human ROMK TH Flux IC50.
hROMK (human Kir1.1), sequence (P48048 whole entry): as above

hERG channels, sequence (Q12809 whole entry): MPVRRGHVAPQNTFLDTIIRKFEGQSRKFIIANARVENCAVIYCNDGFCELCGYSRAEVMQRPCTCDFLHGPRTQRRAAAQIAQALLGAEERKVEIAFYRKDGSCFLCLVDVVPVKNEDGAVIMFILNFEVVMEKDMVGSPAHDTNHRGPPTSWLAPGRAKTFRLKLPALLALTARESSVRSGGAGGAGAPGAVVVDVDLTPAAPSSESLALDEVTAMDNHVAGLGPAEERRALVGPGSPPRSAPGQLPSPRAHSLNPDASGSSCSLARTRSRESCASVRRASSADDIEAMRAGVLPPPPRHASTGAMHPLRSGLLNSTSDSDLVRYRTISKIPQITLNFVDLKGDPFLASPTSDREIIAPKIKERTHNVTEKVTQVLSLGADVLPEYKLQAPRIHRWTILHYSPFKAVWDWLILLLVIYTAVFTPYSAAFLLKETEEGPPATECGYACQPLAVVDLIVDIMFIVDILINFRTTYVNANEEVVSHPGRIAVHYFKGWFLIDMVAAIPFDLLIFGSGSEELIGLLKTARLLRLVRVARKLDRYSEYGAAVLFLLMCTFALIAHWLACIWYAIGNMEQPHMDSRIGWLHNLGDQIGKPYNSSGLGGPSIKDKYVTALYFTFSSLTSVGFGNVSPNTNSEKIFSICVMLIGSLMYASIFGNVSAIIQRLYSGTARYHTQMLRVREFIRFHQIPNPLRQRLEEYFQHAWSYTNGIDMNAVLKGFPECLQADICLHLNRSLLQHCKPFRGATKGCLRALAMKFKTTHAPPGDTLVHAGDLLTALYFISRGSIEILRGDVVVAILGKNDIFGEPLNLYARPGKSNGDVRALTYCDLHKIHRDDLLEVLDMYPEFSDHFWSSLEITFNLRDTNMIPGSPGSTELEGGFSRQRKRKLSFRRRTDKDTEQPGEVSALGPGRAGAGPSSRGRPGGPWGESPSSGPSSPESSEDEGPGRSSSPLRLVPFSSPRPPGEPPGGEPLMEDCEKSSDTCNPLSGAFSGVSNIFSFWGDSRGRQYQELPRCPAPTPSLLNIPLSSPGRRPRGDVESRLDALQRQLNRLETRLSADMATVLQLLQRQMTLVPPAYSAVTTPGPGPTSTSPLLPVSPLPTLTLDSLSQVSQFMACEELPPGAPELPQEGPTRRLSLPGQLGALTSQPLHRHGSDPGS

Turning to `Cc1c(C(O)CNCc2ccc(-c3ccc4oc(=O)n(C)c4c3)nc2)ccc2c1COC2=O` (single isomer, unassigned) [Example 23-I, 5-(5-(((2-hydroxy-2-(4-methyl-1-oxo-1,3-dihydroisobenzofuran-5-yl)ethyl)amino)methyl)pyridin-2-yl)-3-methylbenzo[d]oxazol-2(3H)-one], the inhibition at 1 µM at hERG channels stood at 13%. In addition, the IC50 at hROMK is 15 nM; at hROMK (human Kir1.1), 160 nM.

The molecule `Cc1c(C(O)CN(C)Cc2ccc(-c3ccc(C#N)c(F)c3)cc2)ccc2c1COC2=O` (single isomer, unassigned) [Example 27-I, 3-fluoro-4′-(((2-hydroxy-2-(4-methyl-1-oxo-1,3-dihydroisobenzofuran-5-yl)ethyl)(methyl)amino)methyl)-[1,1′-biphenyl]-4-carbonitrile] yielded an inhibition at 1 µM on hERG channels of 95%. Besides, the IC50 at hROMK came to 6.8 nM; on hROMK (human Kir1.1) it was 40 nM.

With `Cc1cc(-n2cc(CNCC(O)c3ccc4c(c3C3CC3)COC4=O)cn2)ncc1C#N` (single isomer, unassigned) [Example 46-I, 6-(4-(((2-(4-cyclopropyl-1-oxo-1,3-dihydroisobenzofuran-5-yl)2-hydroxyethyl)amino)meth-yl)-1H-pyrazol-1-yl)-4-methylnicotinonitrile], the IC50 at hROMK was 17 nM; on hROMK (human Kir1.1), 33 nM.

Take `Cc1nc(-n2cc(CNC[C@H](O)c3ccc4c(c3C)COC4=O)cn2)ncc1C#N` (single isomer, unassigned) [Example 50]: the inhibition at 1 µM on hERG channels is 8.5%. Also, the IC50 at hROMK came to 49 nM; on hROMK (human Kir1.1), 45 nM.

In the case of `COc1cc(-n2cc(CNC(C)C(O)c3ccc4c(c3C)COC4=O)nn2)ncc1C#N` (single isomer, unassigned) [Example 91-I, 6-(4-(((1-hydroxy-1-(4-methyl-1-oxo-1,3-dihydroisobenzofuran-5-yl)propan-2-yl)amino)methyl)-1H-1,2,3-triazol-1-yl)-4-methoxynicotinonitrile], on hERG channels, at 1 µM the inhibition was 19%. For the same molecule, the IC50 at hROMK amounted to 11 nM; on hROMK (human Kir1.1) it was 21 nM.

Take `Cc1c(C(O)CN(C)Cc2ccc(-c3ccc4oc(=O)n(C)c4c3)nc2)ccc2c1COC2=O` (stereo not shown) [Example 1-I, 5-(5-(((2-hydroxy-2-(4-methyl-1-oxo-1,3-dihydroisobenzofuran-5-yl)ethyl)(methyl)amino)methyl)pyridin-2-yl)-3-methylbenzo[d]oxazol-2(3H)-one]: 1 µM produced 8.7% inhibition against hERG channels. The IC50 was found to be 19 nM at hROMK and 170 nM on hROMK (human Kir1.1).

For the molecule `CN(Cc1ccc(-c2ccc3oc(=O)n(C)c3c2)nc1)C[C@H](O)c1ccc2oc(=O)n(C)c2c1` [Example 6-I], the “hERG EP IC50 (% Inh @1 uM)” value on hERG channels (% inhibition of hERG current at 1 uM, manual patch clamp, HEK 293 cells) was determined as 26%. Also, the IC50 on hROMK came out at 11 nM.

`Cc1c(C(O)CNCc2ccc3c(ccn3-c3ccc4c(c3)COC4=O)c2)ccc2c1COC2=O` (stereo not shown) [Example 8-I, 5-(1-hydroxy-2-(((1-(1-oxo-1,3-dihydroisobenzofuran-5-yl)-1H-indol-5-yl)methyl)amino)ethyl)-4-methylisobenzofuran-1(3H)-one] gave an inhibition at 1 µM against hERG channels of 83%. The IC50 on hROMK was 42 nM; on hROMK (human Kir1.1), 290 nM.

As to `Cc1c([C@@H](O)CNCc2cnc(-n3c(C)nnc3C)nc2)ccc2c1COC2=O` [Example 47, (R)-5-(2-(((2-(3,5-dimethyl-4H-1,2,4-triazol-4-yl)pyrimidin-5-yl)methyl)amino)-1-hydroxyethyl)-4-methylisobenzofuran-1(3H)-one], at 1 µM the inhibition at hERG channels was 9.7%. Besides, the IC50 came out at 420 nM on hROMK and 100 nM at hROMK (human Kir1.1).

With `COc1cc(-n2cnc(CNC[C@H](O)c3ccc4c(c3C)COC4=O)c2)ncc1C#N` [Example 51, (R)-6-(4-(((2-hydroxy-2-(4-methyl-1-oxo-1,3-dihydroisobenzofuran-5-yl)ethyl)amino)methyl)-1H-imidazol-1-yl)-4-methoxynicotinonitrile], at 1 µM the inhibition against hERG channels was 3.4%. Also, the IC50 was 38 nM on hROMK and 73 nM on hROMK (human Kir1.1).

`Cc1cc(-n2cc(CNC[C@H](NS(C)(=O)=O)c3ccc4c(c3C)COC4=O)cn2)ncc1C#N` [Example 61, (R)-N-(2-(((1-(5-cyano-4-methylpyridin-2-yl)-1H-pyrazol-4-yl)methyl)amino)-1-(4-methyl-1-oxo-1,3-dihydroisobenzofuran-5-yl)ethyl)methanesulfonamide] displayed an inhibition at 1 µM against hERG channels of 8.4%. The IC50 on hROMK and at hROMK (human Kir1.1) was 27 nM in each case.

Turning to `COc1nc(-n2cc(CNC[C@H](O)c3ccc4c(c3C)COC4=O)nn2)cc(C)c1C#N` [Example 67, (R)-6-(4-(((2-hydroxy-2-(4-methyl-1-oxo-1,3-dihydroisobenzofuran-5-yl)ethyl)amino)methyl)-1H-1,2,3-triazol-1-yl)-2-methoxy-4-methylnicotinonitrile], the inhibition at 1 µM at hERG channels came to 11%. In addition, the IC50 on hROMK worked out at 9.3 nM; at hROMK (human Kir1.1), 20 nM.

Consider `Cc1cc(-n2cc(CNC[C@H](O)c3ccc4c(c3C)COC4=O)nn2)nc(C)c1C#N` [Example 69, (R)-6-(4-(((2-hydroxy-2-(4-methyl-1-oxo-1,3-dihydroisobenzofuran-5-yl)ethyl)amino)methyl)-1H-1,2,3-triazol-1-yl)-2,4-dimethylnicotinonitrile], for which, on hERG channels, the inhibition at 1 µM is 15%. Moreover, the IC50 at hROMK was 6.1 nM; at hROMK (human Kir1.1), 14 nM.

In turn, `Cc1nc(-n2cc(CNC[C@H](O)c3ccc4c(c3C)COC4=O)cn2)nc(C)c1C#N` [Example 87, (R)-2-(4-(((2-hydroxy-2-(4-methyl-1-oxo-1,3-dihydroisobenzofuran-5-yl)ethyl)amino)methyl)-1H-pyrazol-1-yl)-4,6-dimethylpyrimidine-5-carbonitrile] returned an inhibition at 1 µM at hERG channels of 7.5%. Also, the IC50 was determined as 71 nM at hROMK and 40 nM on hROMK (human Kir1.1).

On to `Cc1nn(-c2ncc(CNC[C@H](O)c3ccc4c(c3C)COC4=O)cn2)cc1C#N` [Example 105, (R)-1-(5-(((2-hydroxy-2-(4-methyl-1-oxo-1,3-dihydroisobenzofuran-5-yl)ethyl)amino)methyl)pyrimidin-2-yl)-3-methyl-1H-pyrazole-4-carbonitrile], for which 1 µM produced 3.4% inhibition against hERG channels. The results for the IC50 at hROMK and at hROMK (human Kir1.1) were 7.8 nM and 11 nM, respectively.

On to `Cc1cn(-c2ncc(CNC[C@H](O)c3ccc4c(c3C)COC4=O)cn2)cn1` [Example 106, (R)-5-(1-hydroxy-2-(((2-(4-methyl-1H-imidazol-1-yl)pyrimidin-5-yl)methyl)amino)ethyl)-4-methylisobenzofuran-1(3H)one], for which the inhibition at 1 µM against hERG channels was 2.4%. Also, the IC50 on hROMK stood at 9.2 nM; on hROMK (human Kir1.1) it was 26 nM.

`Cc1cn(-c2ccc(CNC[C@H](O)c3ccc4c(c3C)COC4=O)cn2)cn1` [Example 108, (R)-5-(1-hydroxy-2-(((6-(4-methyl-1H-imidazol-1-yl)pyridin-3-yl)methyl)amino)ethyl)-4-methylisobenzofuran-1(3H)-one]: at 1 µM the inhibition on hERG channels was 7.3%. In addition, the IC50 on hROMK came to 19 nM; at hROMK (human Kir1.1), 35 nM.

As for `Cc1c([C@@H](O)CNCc2cnc(-n3cc(C#N)c(C(F)F)n3)nc2)ccc2c1COC2=O` [Example 115, (R)-3-(difluoromethyl)-1-(5-(((2-hydroxy-2-(4-methyl-1-oxo-1,3-dihydroisobenzofuran-5-yl)ethyl)amino)methyl)pyrimidin-2-yl)-1H-pyrazole-4-carbonitrile], at 1 µM the inhibition against hERG channels was 12%. Moreover, the IC50 at hROMK and at hROMK (human Kir1.1) was 20 nM in each case.

The molecule `COc1cc(-c2ccc(CNC[C@H](O)c3ccc4c(c3C)COC4=O)cn2)ncc1C#N` [Example 130, (R)-5′-(((2-hydroxy-2-(4-methyl-1-oxo-1,3-dihydroisobenzofuran-5-yl)ethyl)amino)methyl)-4-methoxy-[2,2′-bipyridine]-5-carbonitrile] showed an inhibition at 1 µM against hERG channels of 32%. For the same molecule, the IC50 turned out to be 1.1 nM at hROMK and 8.3 nM on hROMK (human Kir1.1).

For `Cc1c([C@@H](O)CNC(=O)c2cnc(-c3ccc4oc(=O)n(C)c4c3)s2)ccc2c1COC2=O` [Example 136, (R)-N-(2-hydroxy-2-(4-methyl-1-oxo-1,3-dihydroisobenzofuran-5-yl)ethyl)-2-(3-methyl-oxo-2,3-dihydrobenzo[d]oxazol-5-yl)thiazole-5-carboxamide], 1 µM produced 15% inhibition on hERG channels. The IC50 amounted to 86 nM on hROMK and 70 nM at hROMK (human Kir1.1).

Consider `Cc1cc(-n2cc(CNC[C@H](O)c3ccc4c(c3C)COC4=O)c3cccnc32)ncc1C#N` [Example 169, (R)-6-(3-(((2-hydroxy-2-(4-methyl-1-oxo-1,3-dihydroisobenzofuran-5-yl)ethyl)amino)methyl)-1H-pyrrolo[2,3-b]pyridin-1-yl)-4-methylnicotinonitrile], for which at 1 µM the inhibition against hERG channels was 79%. Besides, the IC50 at hROMK (human Kir1.1) came out at 59 nM.

For `COc1cc(-n2cc(CNC[C@H](O)c3ccc4c(c3C)COC4=O)cn2)ncc1C#N` [Example 173, (R)-6-(4-(((2-hydroxy-2-(4-methyl-1-oxo-1,3-dihydroisobenzofuran-5-yl)ethyl)amino)methyl)-1H-pyrazol-1-yl)-4-methoxynicotinonitrile], the inhibition at 1 µM on hERG channels turned out to be 77%. For the same molecule, the IC50 at hROMK (human Kir1.1) amounted to 2.4 nM.

In the case of `Cc1c([C@@H](O)CNCc2ccc(-n3cc(C#N)c(OC(F)F)n3)nc2)ccc2c1COC2=O` [Example 175, (R)-3-(difluoromethoxy)-1-(5-(((2-hydroxy-2-(4-methyl-1-oxo-1,3-dihydroisobenzofuran-5-yl)ethyl)amino)methyl)pyridin-2-yl)-1H-pyrazole-4-carbonitrile], the inhibition at 1 µM against hERG channels came to 86%. In addition, the IC50 on hROMK (human Kir1.1) was determined as 3.6 nM.

The inhibition is the share of the control response that was lost under treatment. Higher therefore signals a strong effect. For orientation: IC50 means the concentration needed to halve the response being measured.

Source of the values: US10723723B2, “Substituted bicycle heterocyclic derivatives useful as ROMK channel inhibitors” (BRISTOL-MYERS SQUIBB COMPANY, priority 2016, dated 2020).
